The values below come from patent publication US20100204277A1, “Compositions and Methods for Controlling Infestation” (HATCHTECH PTY LTD., priority 2007, published 2010).

For experiment [1], the system named is Lice (L) / Plutella (P) eggs. It is filed as in vivo. As for the experimental part:
Log LD50 is obtained from the observed percentage ovicidal activity by conversion using a modified logit transformation. The observed percentage ovicidal activity values were transformed using the equation:
The additional 5% was used to allow a number to be calculated when 0% and 100% activity was observed. The BA is a crude correction to the log of the concentration at which the compounds were tested. Correlation between BA values and LD50 allows the calculation of Log LD50. […] A number of metal chelating agents with potential for inhibiting the remodelling events associated with thin membrane egg hatching in lice were analysed by comparing their percentage ovicidal activity in lice at different concentrations, their logit calculated pLD50, Pref pLD50, Activity class, clogP and molar refractivity were determined.

Experiment [2] deals with Plutella xylostella eggs (Waite strain). Put plainly: Plutella xylostella egg hatch (egg dip).
Method: Several hundred Plutella xylostella eggs (Waite strain) were collected, that had been laid over a 24 hour period.
The egg masses were then placed in a humid box at 25° C. until egg hatch. Control eggs were exposed to absolute methanol as described above. At day 6 post laying the eggs were assessed from the different treatments and the percentage of egg hatch determined relative to the control as shown in Table 9.
Batches of Plutella eggs that were laid on either fine cloth or parafilm were dipped in a specific inhibitor solution for between 2-10 seconds, the excess solution was drained by blotting with dry tissue paper. The egg masses were then placed in a humid box at 25 degrees until egg hatch. Control eggs were exposed to absolute methanol as described above or not treated. At day 6 post laying the eggs were assessed from the different treatments and the percentage of egg hatch determined relative to the controls as shown in Tables 10 and 11.
The egg masses were then placed in a humid box at 25 degrees until egg hatch. Control eggs were exposed to absolute ethanol as described above. On day 6 post laying the eggs were assessed from the different treatments and the percentage of egg hatch determined relative to the control.
The subject of the next experiment is Plutella xylostella eggs. In words: Glass house ovicidal test, Plutella eggs on cabbage plants. It is filed as in vivo. The note with it: 10 eggs per plant. From the text: A number of treatments and replicates were set up in the glass house using young cabbage plants that were at the 4-5 leaf stage. Plutella xylostella eggs were laid by gravid females on the leaves such that each plant contained 10 eggs. The plants were sprayed with a commercial ovicide or using the compounds 5,5′-dimethyl-2,2′-dipyridyl and 5,5′ diethyl-2,2′-dipyridyl in a formulation at the rate of 200 L/Ha using a track sprayer. Controls of water only or Placebo only were also included. The ovicidal efficacy was monitored over a number of days an the number of eggs hatching and caterpillar larvae emerging recorded (Table 22).

Experiment [3] has as its system proteases in louse egg shell washings (ESW). In words: Gelatine substrate SDS-PAGE of louse egg shell washings incubated with protease inhibitors. It is filed as biochemical, Pediculus humanus humanus. Conditions: gelatine SDS-PAGE strips; EDTA 10 mM, 1,10-phenanthroline 10 mM, PMSF 5 mM, E-64 10 μM, Pepstatin 5 μM; 3 hrs at 37° C. As for the experimental part: Within 12 hours of hatching 50 body lice eggs (Pediculus humanus humanus) were removed from the hair and placed in a 1 mL eppendorf tube. 20 μL of distilled water was added to the unhatched eggs and the preparation incubated for 30 minutes at 32° C. The 20 μL was recovered, freeze dried and stored at −70° C. This sample was referred to as sample 1. A number of other samples were also collected as described. Sample 2 was collected by removing the unhatched louse eggs from four hairs that were approximately 3 cm long, cutting the hair into 0.5 cm lengths, and placing them into a microfuge tube containing 20 μl of distilled water and incubating at 32° C. for 30 minutes. Sample 3 was collected as for sample 2, but the hair was placed in a tube containing 10 mL of 1% sodium hypochlorite for 1 minute followed by five 1 minute washes in 25 mL of distilled water to remove the sodium hypochlorite before being incubated in a microfuge tube containing 20 μl of distilled water and incubated as for Sample 2. Sample 4 was collected from unhatched eggs which were removed from the hair and washed with 1% sodium hypochlorite and incubated in 20 μl of distilled water in the same manner as the hair in Sample 3. Finally, Sample 5 was collected from eggs that were within 24 hrs of hatching which were washed with 1% sodium hypochlorite, then returned to the incubator at 32° C. until they hatched, the empty egg shells collected 0-2 hrs after egg-hatching, placed in a 1 mL microfuge tube containing 20 μl of distilled water and incubated as for Samples 1-4. For all samples 1-5 the 20 μl of fluid was recovered, freeze-dried and stored at −70° C. The washings recovered from these freshly hatched egg shells are referred to as egg-shell-washings (ESWs). In order to look for the presence of proteases present in these different samples, the freeze-dried samples were resuspended in 15 μL of non-reducing SDS sample buffer, centrifuged at 10,000 g for 2 minutes and the entire 15 μL loaded on to 10% gelatine substrate SDS-PAGE gels. Gels were run at 4° C. for 10 minutes at 10 mA followed by a further 25 minutes at 15 mA per gel. They were then incubated for 2×20 minutes in a 2.5% Triton-X 100 solution followed by a three hour incubation in 0.1M Tris/HCl containing 1 mM CaCl2 pH 8.0. Activity was detected as clear areas on the gel the result of protease activity degrading the gelatine within the gel.
Protease activity in the ESWs from louse eggs was also examined using two-dimensional gel electrophoresis. It was necessary to collect large numbers of freshly hatched egg shells. Following egglaying onto pieces of cloth, adult female lice were removed and the cloth with the eggs washed with 1% sodium hypochlorite as for collection of ESWs. The eggs were then returned to the incubator and permitted to hatch. Typically 100 to 500 hatched egg shells were collected (0-2 hours post hatching), placed in a microfuge tube containing 200 μl of distilled water, incubated and sample treated as described above. For analysis, ESWs were resuspended in rehydration buffer (8 M Urea, 2% 3-[(3-cholamidopropyl) dimethylammonio]-1-propanesulfonate 2% Immobilised pH gradient buffer 3-10 (Amersham Phamacia Biotech, Uppsala, Sweden)) and used to rehydrate 7 cm Immobiline Dry strips pH 3-10 (Amersham Bioscience) overnight. Strips were transferred to the Multiphor II (Pharmacia, Sweden) apparatus, electrophoresed in the first dimension at 200 V for 1 min, increasing to 3,500 V over the next 90 min followed by 65 min at 3,500 V, equilibrated (6 M urea, 30% glycerol, 50 mM Tris pH 8.8 and 2% SDS) and then run on a 10% SDS-PAGE gel containing 0.1% gelatin for the second dimension. The gel was then run and developed as previously described.
10% SDS-PAGE gelatine substrate gels were loaded with freeze dried egg shell washings from 100 lice eggs that had been resuspended in 50 μL of non-reducing sample buffer with samples run at 10 μL per lane. […]

The mark [4] stands for this setting: 10 mM (200 L/Ha), with wetting agent 0.3 ml/L.
The mark [5] stands for this setting: 20 mM (200 L/Ha), with wetting agent 0.3 ml/L.

Where two headings read alike, the source gives them in different places. Non-standard residues stand in square brackets, D forms with d. Residues, ends and D or L forms follow the SMILES beside them. *: point of attachment. Sta = CC(C)C[C@H](N)[C@@H](O)CC(=O)O; Isovaleryl = CC(C)CC(=O)*

For the compound `N[C@@H]1CCCC[C@H]1O` (relative stereo) [Trans-2-aminocyclohexanol], the “Activity class 0 = inactive 1 = low 2 = med 3 = high” value in experiment [1] (10 mM, Lice/Plutella: ND P) is 0 (A pLD50 value less than 2 is considered inactive (Class 0)).

Take `Cc1cc(C)cc(C(=O)CC(=O)c2cc(C)cc(C)c2)c1` [1,3-Bis-(3,5-dimethyl-phenyl)-propane-1,3-dione]: the “Activity class 0 = inactive 1 = low 2 = med 3 = high” value in experiment [1] (10 mM, Lice/Plutella: ND P) was 0 (A pLD50 value less than 2 is considered inactive (Class 0)).

On to `COc1ccc(C(=O)CC(=O)c2ccc(OC)cc2)cc1` [1,3-Bis-(4-methoxy-phenyl)-propane-1,3-dione], for which the “Activity class 0 = inactive 1 = low 2 = med 3 = high” value in experiment [1] (10 mM, Lice/Plutella: ND P) was 0 (A pLD50 value less than 2 is considered inactive (Class 0)). On the same count and under the same terms, as for `CC(C)(C)c1ccc(C(=O)CC(=O)c2ccc(C(C)(C)C)cc2)cc1` [1,3-Bis-(4-tert-butyl-phenyl)-propane-1,3-dione], the figure is 0 (A pLD50 value less than 2 is considered inactive (Class 0)); as for `O=C(CC(=O)c1cccnc1)c1cccnc1` [1,3-dipyridin-3-yl-propane-1,3-dione], 0 (A pLD50 value less than 2 is considered inactive (Class 0)). As for `COc1ccc(C(=O)CC(=O)c2ccc(C(C)(C)C)cc2)cc1` [1-(4-tert-butylphenyl)-3-(4-methoxyphenyl)-propane-1,3-dione], the “Activity class 0 = inactive 1 = low 2 = med 3 = high” value in experiment [1] (10 mM, Lice/Plutella: L P) is 0 (A pLD50 value less than 2 is considered inactive (Class 0)). As to `c1ccc2nc(-c3ccc4ccccc4n3)ccc2c1` [2,2′-biquinoline], the “Activity class 0 = inactive 1 = low 2 = med 3 = high” value in experiment [1] (10 mM, Lice/Plutella: L P) is 0 (A pLD50 value less than 2 is considered inactive (Class 0)). For `c1ccc(-c2ccc3ccccc3n2)nc1` [2-(2-pyridinyl)quinoline], the “% Inhibition of egg hatch relative to control” value in experiment [2] (10 mM, Example 18, eggs on fine cloth dipped approximately 2 seconds, day 6 post laying) is on record as “able to inhibit”. For the same compound, the “Activity class 0 = inactive 1 = low 2 = med 3 = high” value in experiment [1] (10 mM, Lice/Plutella: P) is 1 (a pLD50 value between 2 and 3 is considered weakly active (Class 1)). For the compound `CC(=O)C1CCCCC1=O` (stereo not shown) [2-Acetylcyclohexanone], in experiment [1] (10 mM, Lice/Plutella: ND P), the “Activity class 0 = inactive 1 = low 2 = med 3 = high” value was 0 (A pLD50 value less than 2 is considered inactive (Class 0)). On to `c1ccc(Cc2ccccn2)cc1` [2-benzyl-pyridine], for which the “Activity class 0 = inactive 1 = low 2 = med 3 = high” value in experiment [1] (10 mM, Lice/Plutella: L P) is 0 (A pLD50 value less than 2 is considered inactive (Class 0)). On to `O=C(CC(=O)C(F)(F)F)c1ccccc1` [4,4,4-Trifluoro-1-phenyl-butane-1,3-dione], for which, in experiment [1] (10 mM, Lice/Plutella: L P), the “Activity class 0 = inactive 1 = low 2 = med 3 = high” value is 0 (A pLD50 value less than 2 is considered inactive (Class 0)). Regarding `Cc1ccnc(-c2cc(C)ccn2)c1` [4,4′-dimethyl-2,2′-dipyridyl], in experiment [2] (10 and 1 mM, cloth or parafilm), the “egg hatching of Plutella eggs (Tables 10 and 11)” value is reported as “significantly inhibit”. As to `c1cnc2ccc3ncccc3c2c1` [4,7-phenanthroline], in experiment [1] (10 mM, Lice/Plutella: L P), the “Activity class 0 = inactive 1 = low 2 = med 3 = high” value was 0 (A pLD50 value less than 2 is considered inactive (Class 0)). The same measure, in the same setting: as for `c1ccc(-c2cc(N3CCOCC3)c3ccccc3n2)nc1` [4-Morpholin-4-yl-2-pyridin-2-yl-quinoline], the figure is 0 (A pLD50 value less than 2 is considered inactive (Class 0)).

Take `CCc1ccc(-c2ccc(CC)cn2)nc1` [5,5′diethyl-2,2′-dipyridyl]: the “# LARVAE EMERGED 0-24 h” value came out at 0 in the experiment with Plutella xylostella eggs (10 mM (200 L/Ha), No Wetting Agent) and 0 with Plutella xylostella eggs (setting [4]). Regarding `Cc1ccc(-c2ccc(C)cn2)nc1` [5,5′dimethyl-2,2′-dipyridyl], in the experiment with Plutella xylostella eggs (setting [4]), the “# LARVAE EMERGED 0-24 h” value is reported as 0 and the “# LARVAE EMERGED 24-48 h” value is 0. In the experiment with Plutella xylostella eggs (setting [5]), the “# LARVAE EMERGED 0-24 h” value was determined as 0 and the “# LARVAE EMERGED 24-48 h” value was 0. Also, the “# LARVAE EMERGED 48-72 h” value with Plutella xylostella eggs (20 mM (200 L/Ha), with wetting agent 0.3 ml/L, 48-72 h) was 0. On to `CC(=O)NO` [Acetohydroxamic acid], for which the “Activity class 0 = inactive 1 = low 2 = med 3 = high” value in experiment [1] (10 mM, Lice/Plutella: ND P) was 0 (A pLD50 value less than 2 is considered inactive (Class 0)).

For `CC(=O)CC(=O)c1ccccc1` [Benzoylacetone], the “Activity class 0 = inactive 1 = low 2 = med 3 = high” value in experiment [1] (1 mM, Lice/Plutella: ND P) is 0 (A pLD50 value less than 2 is considered inactive (Class 0)); in experiment [1] (10 mM, Lice/Plutella: ND P), 1 (a pLD50 value between 2 and 3 is considered weakly active (Class 1)). As for `O=C(CC(=O)c1ccccc1)c1ccccc1` [Dibenzoyl methane], in experiment [1] (10 mM, Lice/Plutella: P), the “Activity class 0 = inactive 1 = low 2 = med 3 = high” value is 1 (a pLD50 value between 2 and 3 is considered weakly active (Class 1)). `CC(C)C[C@H](NC(=O)[C@H]1O[C@@H]1C(=O)O)C(=O)NCCCCN=C(N)N` [E-64]: the “protease activity of egg shell washings compared to untreated controls” value in experiment [3] is “no apparent reduction in protease activity”. With `O=C(O)CN(CCN(CC(=O)O)CC(=O)O)CC(=O)O` [EDTA, ethylenediamine tetraacetic acid], the “protease activity of egg shell washings compared to untreated controls” value in experiment [3] is listed as “reduction in protease activity”.

Turning to `COC(=O)CN` [Glycine methyl ester], the “Activity class 0 = inactive 1 = low 2 = med 3 = high” value in experiment [1] (10 mM, Lice/Plutella: ND P) was 0 (A pLD50 value less than 2 is considered inactive (Class 0)). For `O=S(=O)(F)Cc1ccccc1` [PMSF], the “protease activity of egg shell washings compared to untreated controls” value in experiment [3] is recorded as “no apparent reduction in protease activity”.

Consider `CC(C)CC(=O)N[C@H](C(=O)N[C@H](C(=O)N[C@@H](CC(C)C)[C@@H](O)CC(=O)N[C@@H](C)C(=O)N[C@@H](CC(C)C)[C@@H](O)CC(=O)O)C(C)C)C(C)C` [pepstatin] (Isovaleryl-VV[Sta]A[Sta]-OH), for which, in experiment [3], the “protease activity of egg shell washings compared to untreated controls” value is “no apparent reduction in protease activity”.
